# Patent US20210186982A1, “METHODS AND COMPOSITIONS FOR TREATING MELANOMA” (UNIVERSITE NICE SOPHIA ANTIPOLIS, priority 2017, published 2021)
# Columns and labels:
# A375 = assay: MTS conversion assay, melanoma cell proliferation; type: cell-based, human; details: 24 h; increasing doses up to 10 μM
# Method: Cell proliferation was measured by a MTS conversion assay using the CellTiter 96® Aqueous Non-Radioactive Cell Proliferation kit (Promega, Madison Wis.) according to the manufacturer instructions. Cells were seeded in 96-well plates (5×10^4 cells/well) and treated with different reagents for the indicated times and incubated at 37° C. with MTS reagent. The optical density of each sample at 490 nm was determined with a Multiskan FC plate reader (Thermo Fisher Scientific, Waltham, Mass. USA).
# melanoma cell cultures = assay: Cytotoxicity of b-AP15 in presence of NAC or pan-caspase inhibitor; type: cell-based, human; details: co-incubation with b-AP15
# USP14 = molecular target: T1, USP14 (Homo sapiens, UniProt P54578); assay: DUB trap assay (HA-Ub-VS probe, anti-USP14 immunoblot); type: cell-based; details: A375 melanoma cells
# T1 construct: endogenous in cells; host or cells: A375 (also 1205Lu, 501Mel, SKMel28, 451Lu) melanoma cells; cell lysates
# T1 sequence (P54578 whole entry): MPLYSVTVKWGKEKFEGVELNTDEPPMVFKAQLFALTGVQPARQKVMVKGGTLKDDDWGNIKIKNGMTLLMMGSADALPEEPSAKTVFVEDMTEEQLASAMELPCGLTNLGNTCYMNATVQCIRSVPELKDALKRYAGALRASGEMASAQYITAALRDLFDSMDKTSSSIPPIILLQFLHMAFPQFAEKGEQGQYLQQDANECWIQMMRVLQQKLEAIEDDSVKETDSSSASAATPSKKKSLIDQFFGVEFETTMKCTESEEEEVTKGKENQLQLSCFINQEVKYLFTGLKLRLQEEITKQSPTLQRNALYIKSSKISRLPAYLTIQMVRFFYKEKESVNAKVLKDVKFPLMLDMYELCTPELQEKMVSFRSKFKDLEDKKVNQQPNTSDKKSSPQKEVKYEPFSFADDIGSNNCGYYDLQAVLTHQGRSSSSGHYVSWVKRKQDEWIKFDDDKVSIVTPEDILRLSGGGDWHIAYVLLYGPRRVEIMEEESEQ
# Method: (§1) Cells were harvested, washed with PBS and pellets were dried then freezed (−80° C.) and subsequently lysed in ice-cold buffer containing 50 mM Tris (pH 7.4), 5 mM MgCl2, 250 mM sucrose, 1 mM DTT, 2 mM ATP, and 1 mM PMSF and mild sonication. Lysates were cleared by centrifugation, and 20 μg of protein extracts were incubated for 25 min at 37° C. with 2 μM HA-Ub-VS (Boston Biochem, Cambridge, Mass.). After boiling in reducing sample buffer, labelled cell lysates were subjected to immunoblot analysis as described above using the indicated antibodies.
# UCHL5 = molecular target: T2, UCHL5 (Homo sapiens, UniProt Q9Y5K5); assay: DUB trap assay (HA-Ub-VS probe, anti-UCHL5 immunoblot); type: cell-based
# T2 construct: 20 μg of protein extracts were incubated for 25 min at 37° C. with 2 μM HA-Ub-VS; endogenous in cells; host or cells: A375 melanoma cells; cell lysates
# T2 sequence (Q9Y5K5 whole entry): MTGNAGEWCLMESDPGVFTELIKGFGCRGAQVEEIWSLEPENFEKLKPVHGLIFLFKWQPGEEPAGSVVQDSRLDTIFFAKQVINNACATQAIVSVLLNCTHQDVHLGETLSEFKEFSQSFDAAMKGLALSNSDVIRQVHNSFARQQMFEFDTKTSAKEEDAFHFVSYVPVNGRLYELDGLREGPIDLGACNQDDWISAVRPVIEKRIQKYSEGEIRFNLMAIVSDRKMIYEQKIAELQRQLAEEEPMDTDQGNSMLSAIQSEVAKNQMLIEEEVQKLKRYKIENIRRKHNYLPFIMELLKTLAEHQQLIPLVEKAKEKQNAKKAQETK
# Method: as §1
# A375 and Me1501 cells = assay: Cytotoxicity, cytotox green reagent (IncuCyte); type: cell-based, human; details: 72 h; compared with b-AP15
# Method: FIG. 8. USP14 inhibition induces growth inhibition and cytotoxicity on melanoma cell lines. (A) Growth curve of A375 treated with 2 μM b-AP15, 2 μM VLX1570 or […] bortezomib (BTZ). Data were acquired in triplicate during 3 days using an IncuCyte Zoom. (B) and (C) Cytotoxic effects of USP14 inhibition on melanoma cells. A375 and Me1501 cells were treated with the indicated doses of b-AP15 or VLX1570, and stained with cytotox green reagent (100 nM). Cytotoxicity was monitored in triplicate for 72 h with an IncuCyte imaging system.
# A375 cells = assay: ROS production (CM-H2DCFDA, flow cytometry); type: cell-based, human; details: 5 mM NAC with 2 μM b-AP15
# Method: ROS levels were measured using the redox-sensitive dye CM-H2DCFDA (Thermo Fischer Scientific). After treatment, cells were stained with 10 μM CM-H2DCFDA in PBS for 30 min at 37° C. Cells were washed with PBS and resuspended in PBS 5 mM EDTA/1% BSA. ROS production was analysed using a MACSQuant® Analyzer 10 cytometer (Miltenyi Biotech).
# [1] = Annexin-V-FITC/7-AAD flow cytometry, cell viability; type: cell-based; details: human, A375 cells; solvent 87%
# Method: Cell death was evaluated by flow cytometry following staining with Annexin-V-FITC and 7-AAD (eBiosciences) as previously described 24.
smiles,measurement,setting,value
CCC[C@H](NC(=O)/C(C#N)=C/c1cccc(Br)n1)c1ccccc1 [WP1130],cell proliferation of A375 cells (MTS),A375,drastically decreased cell proliferation
N#Cc1nc2c(nc1C#N)-c1ccc(Cl)cc1C2=O [HBX41108],cell proliferation of A375 cells (MTS),A375,drastically decreased cell proliferation
CC(C)[C@H](NC(=O)c1ccc2ccccc2n1)C(=O)N[C@@H](CC(=O)O)C(=O)COc1c(F)cccc1F [QVD-OPh],effect on cytotoxicity of b-AP15,melanoma cell cultures,did not prevent the cytotoxic action of b-AP15
C=CC(=O)N1CC/C(=C\c2ccc(F)c([N+](=O)[O-])c2)C(=O)/C(=C/c2ccc(F)c([N+](=O)[O-])c2)C1 [VLX1570],USP14 activity (USP14-Ub-HA) in A375 cells,USP14,blocked USP14
same,UCHL5 activity (UCHL5-Ub-HA) in A375 cells,UCHL5,not UCHL5
same,melanoma cell death,A375 and Me1501 cells,induced to similar levels
"CC(=O)N[C@@H](CS)C(=O)O [NAC, N-acetyl-L-cysteine]",effect on cytotoxicity of b-AP15,melanoma cell cultures,blocked
same,effect on b-AP15-triggered burst of ROS,A375 cells,inhibited
CN[C@@H]1C[C@H]2O[C@@](C)([C@@H]1OC)n1c3ccccc3c3c4c(c5c6ccccc6n2c5c31)C(=O)NC4 [staurosporine],viability,[1],56%
